Assay results as given in US10577378B2, “EIF4A-inhibiting compounds and methods related thereto” (eFFECTOR Therapeutics, Inc., priority 2015, dated 2020).
pIC50: −log10 of the molar value.

System: MDA-MB-231 human breast cancer cells
Experiment: Cell proliferation assay (CellTiter-Glo, 72 hours treatment)
Format: cell-based
Details: Homo sapiens; MDA-MB-231 cells, 72 hours at 37° C., CellTiter-Glo; read-out: MDA-MB-231 cell proliferation assay (IC50)
How it was run: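 IC50 categories: under 100 nM +++, 100–1000 nM ++, above 1000 nM +, derived by sigmoidal curve fitting of CellTiter-Glo luminescence. Cells plated at 2,500 per well, dosed the following day and exposed 72 h at 37 °C versus DMSO control.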

In the case of `COc1nc(C#N)cc2c1[C@]1(O)[C@H](O)[C@H](CN3CCCC(F)(F)C3)[C@@H](c3ccccc3)[C@]1(c1ccc(C#N)cc1)O2` (racemic) [154F, Rac-(5aR,6S,7S,8R,8aS)-5a-(4-cyanophenyl)-7-((3,3-difluoropiperidin-1-yl)methyl)-8,8a-dihydroxy-1-methoxy-6-phenyl-5a,7,8,8a-tetrahydro-6H-cyclopenta[4,5]furo[3,2-c]pyridine-3-carbonitrile], the pIC50 was 6.00 to 7.00.
Work on `COc1nc(C#N)cc2c1[C@]1(O)[C@H](O)[C@H](CNC(C)(C)C)[C@@H](c3ccccc3)[C@]1(c1ccc(C#N)cc1)O2` (racemic) [155F, Rac-(5aR,6S,7S,8R,8aS)-7-((tert-butylamino)methyl)-5a-(4-cyanophenyl)-8,8a-dihydroxy-1-methoxy-6-phenyl-5a,7,8,8a-tetrahydro-6H-cyclopenta[4,5]furo[3,2-c]pyridine-3-carbonitrile] yielded a pIC50 of 6.00 to 7.00.
`COc1nc(C#N)cc2c1[C@]1(O)[C@H](O)[C@H](CN3CCC(F)CC3)[C@@H](c3ccccc3)[C@]1(c1ccc(Br)cc1)O2` (racemic) [156Fa, Rac-(5aR,6S,7S,8R,8aS)-5a-(4-bromophenyl)-7-((4-fluoropiperidin-1-yl)methyl)-8,8a-dihydroxy-1-methoxy-6-phenyl-5a,7,8,8a-tetrahydro-6H-cyclopenta[4,5]furo[3,2-c]pyridine-3-carbonitrile] was tested, and the pIC50 was > 7.00.
`COc1nc(Cl)cc2c1[C@]1(O)[C@H](O)[C@H](CN3CCC(F)CC3)[C@@H](c3ccccc3)[C@]1(c1ccc(C#N)cc1)O2` (racemic) [156Fb, Rac-4-((5aR,6S,7S,8R,8aS)-3-chloro-7-((4-fluoropiperidin-1-yl)methyl)-8,8a-dihydroxy-1-methoxy-6-phenyl-6,7,8,8a-tetrahydro-5aH-cyclopenta[4,5]furo[3,2-c]pyridin-5a-yl)benzonitrile] was tested, and the pIC50 was > 7.00.
For `COc1nc(C#N)cc2c1[C@]1(O)[C@H](O)[C@H](CN3CCC(F)CC3)[C@@H](c3ccccc3)[C@]1(c1ccc(C#N)cc1)O2` (racemic) [156Fc, Rac-(5aR,6S,7S,8R,8aS)-5a-(4-cyanophenyl)-7-((4-fluoropiperidin-1-yl)methyl)-8,8a-dihydroxy-1-methoxy-6-phenyl-5a,7,8,8a-tetrahydro-6H-cyclopenta[4,5]furo[3,2-c]pyridine-3-carbonitrile], the pIC50 was > 7.00.
`COc1nc(C#N)cc2c1[C@]1(O)[C@H](O)[C@H](CN3CCC(F)(F)CC3)[C@@H](c3ccccc3)[C@]1(c1ccc(Br)cc1)O2` (racemic) [157Fa, Rac-(5aR,6S,7S,8R,8aS)-5a-(4-bromophenyl)-7-((4,4-difluoropiperidin-1-yl)methyl)-8,8a-dihydroxy-1-methoxy-6-phenyl-5a,7,8,8a-tetrahydro-6H-cyclopenta[4,5]furo[3,2-c]pyridine-3-carbonitrile] gave a pIC50 of 6.00 to 7.00.
In the case of `COc1nc(Cl)cc2c1[C@]1(O)[C@H](O)[C@H](CN3CCC(F)(F)CC3)[C@@H](c3ccccc3)[C@]1(c1ccc(C#N)cc1)O2` (racemic) [157Fb, Rac-4-((5aR,6S,7S,8R,8aS)-3-chloro-7-((4,4-difluoropiperidin-1-yl)methyl)-8,8a-dihydroxy-1-methoxy-6-phenyl-6,7,8,8a-tetrahydro-5aH-cyclopenta[4,5]furo[3,2-c]pyridin-5a-yl)benzonitrile], the pIC50 was 6.00 to 7.00.
`COc1nc(C#N)cc2c1[C@]1(O)[C@H](O)[C@H](CN3CCC(F)(F)CC3)[C@@H](c3ccccc3)[C@]1(c1ccc(C#N)cc1)O2` (racemic) [157Fc, Rac-(5aR,6S,7S,8R,8aS)-5a-(4-cyanophenyl)-7-((4,4-difluoropiperidin-1-yl)methyl)-8,8a-dihydroxy-1-methoxy-6-phenyl-5a,7,8,8a-tetrahydro-6H-cyclopenta[4,5]furo[3,2-c]pyridine-3-carbonitrile] gave a pIC50 of 6.00 to 7.00.
With `COc1nc(C#N)cc2c1[C@]1(O)[C@H](O)[C@H](CN3CCCC3)[C@@H](c3ccccc3)[C@]1(c1ccc(Br)cc1)O2` (racemic) [158Fa, Rac-(5aR,6S,7S,8R,8aS)-5a-(4-bromophenyl)-8,8a-dihydroxy-1-methoxy-6-phenyl-7-(pyrrolidin-1-ylmethyl)-5a,7,8,8a-tetrahydro-6H-cyclopenta[4,5]furo[3,2-c]pyridine-3-carbonitrile] the pIC50 was > 7.00.
In the case of `COc1nc(Cl)cc2c1[C@]1(O)[C@H](O)[C@H](CN3CCCC3)[C@@H](c3ccccc3)[C@]1(c1ccc(C#N)cc1)O2` (racemic) [158Fb, Rac-4-((5aR,6S,7S,8R,8aS)-3-chloro-8,8a-dihydroxy-1-methoxy-6-phenyl-7-(pyrrolidin-1-ylmethyl)-6,7,8,8a-tetrahydro-5aH-cyclopenta[4,5]furo[3,2-c]pyridin-5a-yl)benzonitrile], the pIC50 was > 7.00.
For `COc1nc(C#N)cc2c1[C@]1(O)[C@H](O)[C@H](CN3CCCC3)[C@@H](c3ccccc3)[C@]1(c1ccc(C#N)cc1)O2` (racemic) [158Fc, Rac-(5aR,6S,7S,8R,8aS)-5a-(4-cyanophenyl)-8,8a-dihydroxy-1-methoxy-6-phenyl-7-(pyrrolidin-1-ylmethyl)-5a,7,8,8a-tetrahydro-6H-cyclopenta[4,5]furo[3,2-c]pyridine-3-carbonitrile], the pIC50 was > 7.00.
In the case of `CCN(CC)C[C@H]1[C@@H](O)[C@@]2(O)c3c(cc(C#N)nc3OC)O[C@@]2(c2ccc(Br)cc2)[C@@H]1c1ccccc1` (racemic) [159Fa, Rac-(5aR,6S,7S,8R,8aS)-5a-(4-bromophenyl)-7-((diethylamino)methyl)-8,8a-dihydroxy-1-methoxy-6-phenyl-5a,7,8,8a-tetrahydro-6H-cyclopenta[4,5]furo[3,2-c]pyridine-3-carbonitrile], the pIC50 was > 7.00.
With `CCN(CC)C[C@H]1[C@@H](O)[C@@]2(O)c3c(cc(Cl)nc3OC)O[C@@]2(c2ccc(C#N)cc2)[C@@H]1c1ccccc1` (racemic) [159Fb, Rac-4-((5aR,6S,7S,8R,8aS)-3-chloro-7-((diethylamino)methyl)-8,8a-dihydroxy-1-methoxy-6-phenyl-6,7,8,8a-tetrahydro-5aH-cyclopenta[4,5]furo[3,2-c]pyridin-5a-yl)benzonitrile] the pIC50 was > 7.00.
With `CCN(CC)C[C@H]1[C@@H](O)[C@@]2(O)c3c(cc(C#N)nc3OC)O[C@@]2(c2ccc(C#N)cc2)[C@@H]1c1ccccc1` (racemic) [159Fc, Rac-(5aR,6S,7S,8R,8aS)-5a-(4-cyanophenyl)-7-((diethylamino)methyl)-8,8a-dihydroxy-1-methoxy-6-phenyl-5a,7,8,8a-tetrahydro-6H-cyclopenta[4,5]furo[3,2-c]pyridine-3-carbonitrile] the pIC50 was > 7.00.
For `O[C@@H]1[C@H](Sc2ccccn2)[C@@H](c2ccccc2)[C@]2(c3ccc(Br)cc3)Oc3cc(Cl)cnc3[C@]12O` (racemic) [160Fa, Rac-(5aR,6S,7R,8S,8aS)-5a-(4-bromophenyl)-3-chloro-6-phenyl-7-(pyridin-2-ylthio)-5a,6,7,8-tetrahydro-8aH-cyclopenta[4,5]furo[3,2-b]pyridine-8,8a-diol], the pIC50 was 6.00 to 7.00.
With `O[C@H]1[C@H](Sc2ccccn2)[C@@H](c2ccccc2)[C@]2(c3ccc(Br)cc3)Oc3cc(Cl)cnc3[C@]12O` (racemic) [160Fb, Rac-(5aR,6S,7R,8R,8aS)-5a-(4-bromophenyl)-3-chloro-6-phenyl-7-(pyridin-2-ylthio)-5a,6,7,8-tetrahydro-8aH-cyclopenta[4,5]furo[3,2-b]pyridine-8,8a-diol] the pIC50 was < 6.00.
In the case of `COC(=O)[C@@H]1[C@@H](c2ccccc2)[C@]2(c3ccc(Br)cc3)Oc3cc(Cl)cnc3[C@@]23O[C@@H]13` (racemic) [161F, Rac-methyl (1aS,2R,3S,3aR,8bS)-3a-(4-bromophenyl)-6-chloro-3-phenyl-1a,2,3,3a-tetrahydro-oxireno[2″,3″:1′,5′]cyclopenta[1′,2′:4,5]furo[3,2-b]pyridine-2-carboxylate], the pIC50 was < 6.00.
With `OC[C@H]1C[C@@H](c2ccccc2)[C@]2(c3ccc(Br)cc3)Oc3cc(Cl)cnc3[C@]12O` (racemic) [162F, Rac-(5aR,6S,8R,8aR)-5a-(4-bromophenyl)-3-chloro-8-(hydroxymethyl)-6-phenyl-5a,6,7,8-tetrahydro-8aH-cyclopenta[4,5]furo[3,2-b]pyridin-8a-ol] the pIC50 was 6.00 to 7.00.
Work on `O=S(=O)(c1ccccn1)[C@H]1[C@@H](O)[C@@]2(O)c3ncc(Cl)cc3O[C@@]2(c2ccc(Br)cc2)[C@@H]1c1ccccc1` (racemic) [163F, rac-(5aR,6S,7R,8S,8aS)-5a-(4-bromophenyl)-3-chloro-6-phenyl-7-(pyridin-2-ylsulfonyl)-5a,6,7,8-tetrahydro-8aH-cyclopenta[4,5]furo[3,2-b]pyridine-8,8a-diol] yielded a pIC50 of 6.00 to 7.00.
Molecule `N#Cc1ccc([C@@]23Oc4cc(Cl)cnc4[C@]2(O)[C@H](O)[C@H](S(=O)(=O)c2ccccn2)[C@H]3c2ccccc2)cc1` (racemic) [164F, Rac-4-((5aR,6S,7R,8S,8aS)-3-chloro-8,8a-dihydroxy-6-phenyl-7-(pyridin-2-ylsulfonyl)-6,7,8,8a-tetrahydro-5aH-cyclopenta[4,5]furo[3,2-b]pyridin-5a-yl)benzonitrile] has a pIC50 of 6.00 to 7.00.
With `NC[C@@H]1C[C@@H](c2ccccc2)[C@]2(c3ccc(Br)cc3)Oc3cc(Cl)cnc3[C@]12O` (racemic) [165F, Rac-(5aR,6S,8S,8aR)-8-(aminomethyl)-5a-(4-bromophenyl)-3-chloro-6-phenyl-5a,6,7,8-tetra-hydro-8aH-cyclopenta[4,5]furo[3,2-b]pyridin-8a-ol] the pIC50 was 6.00 to 7.00.
For `OC[C@@H]1C[C@@H](c2ccccc2)[C@]2(c3ccc(Br)cc3)Oc3cc(Cl)cnc3[C@]12O` (racemic) [166F, rac-(5aR,6S,8S,8aR)-5a-(4-bromophenyl)-3-chloro-8-(hydroxymethyl)-6-phenyl-5a,6,7,8-tetrahydro-8aH-cyclopenta[4,5]furo[3,2-b]pyridin-8a-ol], the pIC50 was 6.00 to 7.00.
`N#Cc1ccc([C@@]23Oc4cc(Cl)cnc4[C@]2(O)[C@@H](CO)C[C@H]3c2ccccc2)cc1` (racemic) [167F, Rac-4-((5aR,6S,8R,8aR)-3-chloro-8a-hydroxy-8-(hydroxymethyl)-6-phenyl-6,7,8,8a-tetrahydro-5aH-cyclopenta[4,5]furo[3,2-b]pyridin-5a-yl)benzonitrile] showed a pIC50 of 6.00 to 7.00.
